Data: ChEMBL document CHEMBL1125332, “Synthesis and biological evaluation of 5'-sulfamoylated purinyl carbocyclic nucleosides” (J Med Chem, 1992)
Values after ≈ are worked out from the molar mass of the structure shown.

Tested on: P388
Test: Cytotoxicity against P388 mouse leukemia cells
Type: functional, cell-based

| SMILES | IC50 [µg/mL] |
| --- | --- |
| CN(C)c1ncnc2c1ncn2C1CC(COS(N)(=O)=O)C(O)C1O (centres undefined) | 74 (≈ 199 µM) |
| CSc1ncnc2c1ncn2C1CC(COS(N)(=O)=O)C(O)C1O (centres undefined) | 50 (≈ 133 µM) |
| Nc1ncnc2c1nnn2C1CC(CO)C(O)C1O (centres undefined) | 0.5 (≈ 1.88 µM) |
| Nc1ncnc2c1nnn2C1CC(COS(N)(=O)=O)C(O)C1O (centres undefined) | 0.0625 (≈ 0.181 µM) |
| COc1ccc(C[C@H](N)C(=O)N[C@H]2[C@@H](O)[C@H](n3cnc4c(N(C)C)ncnc43)O[C@@H]2CO)cc1 [PUROMYCIN] | 0.5 (≈ 1.06 µM) |
| CNc1ncnc2c1ncn2C1CC(COS(N)(=O)=O)C(O)C1O (centres undefined) | 4 (≈ 11.2 µM) |
| Nc1ncnc2c1ncn2[C@@H]1C[C@H](CO)[C@@H](O)[C@H]1O [ARISTEROMYCIN] | 0.5 (≈ 1.88 µM) |
| Nc1ncnc2c1ncn2COCCOS(N)(=O)=O | > 100 |
| Nc1ncnc2c1ncn2C1CC(COS(N)(=O)=O)C(O)C1O (centres undefined) | 0.125 (≈ 0.363 µM) |
